Assay results: US20120202690A1, “HERBICIDAL COMPOUNDS” (SYNGENTA LIMITED, priority 2009, published 2012)

What was measured:
Type in all cases: in vivo
[1] = test system: Alopecurus myosuroides (ALOMY); assay: Pre-emergence biological efficacy, glasshouse, 1000 g/ha, evaluated after 13 days (100=total damage to plant; 0=no damage to plant); conditions: Alopecurus myosuroides, 312 h, rate 1,000 g/ha, read-out: Percentage damage caused to weed species, pre-emergence, ALOMY
In short: (§1)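 Test species are sown into pots of standard soil. Plants then grow in the glasshouse under controlled conditions (24/16° C. day/night, 14 hours light, 65% humidity) and receive water twice a day.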

[2] = test system: Amaranthus retroflexus (AMARE); assay: as above; conditions: Amaranthus retroflexus, 312 h, rate 1,000 g/ha, read-out: Percentage damage caused to weed species, pre-emergence, AMARE
In short: as §1

[3] = test system: Echinochloa crus-galli (ECHCG); assay: as above; conditions: Echinochloa crus-galli, 312 h, rate 1,000 g/ha, read-out: Percentage damage caused to weed species, pre-emergence, ECHCG
In short: as §1

[4] = test system: Ipomoea hederaceae (IPOHE); assay: as above; conditions: Ipomoea, 312 h, rate 1,000 g/ha, read-out: Percentage damage caused to weed species, pre-emergence, IPOHE
In short: as §1

[5] = test system: Setaria faberi (SETFA); assay: as above; conditions: Setaria faberi, 312 h, rate 1,000 g/ha, read-out: Percentage damage caused to weed species, pre-emergence, SETFA
In short: as §1

[6] = test system: Solanum nigrum (SOLNI); assay: as above; conditions: Solanum nigrum, 312 h, rate 1,000 g/ha, read-out: Percentage damage caused to weed species, pre-emergence, SOLNI
In short: as §1

[7] = test system: Alopecurus myosuroides (ALOMY); assay: Post-emergence biological efficacy, glasshouse, 500 or 1000 g/ha, evaluated after 13 days (100=total damage to plant; 0=no damage to plant); conditions: Alopecurus myosuroides, 312 h, rate 1,000 g/ha, read-out: Percentage damage caused to weed species, post-emergence, ALOMY
In short: (§2)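 Damage is scored on pot-grown plants, sown in standard soil and sprayed after emergence, that were held post-treatment in a glasshouse (24/16° C. day/night, 14 hours light, 65% humidity).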

[8] = test system: Amaranthus retroflexus (AMARE); assay: as above; conditions: Amaranthus retroflexus, 312 h, rate 1,000 g/ha, read-out: Percentage damage caused to weed species, post-emergence, AMARE
In short: as §2

[9] = test system: Echinochloa crusgaffi (ECHCG); assay: as above; conditions: Echinochloa, 312 h, rate 1,000 g/ha, read-out: Percentage damage caused to weed species, post-emergence, ECHCG
In short: as §2

[10] = test system: Ipomoea hederaceae (IPOHE); assay: as above; conditions: Ipomoea, 312 h, rate 1,000 g/ha, read-out: Percentage damage caused to weed species, post-emergence, IPOHE
In short: as §2

[11] = test system: Setaria faberi (SETFA); assay: as above; conditions: Setaria faberi, 312 h, rate 1,000 g/ha, read-out: Percentage damage caused to weed species, post-emergence, SETFA
In short: as §2

[12] = test system: Solanum nigrum (SOLNI); assay: as above; conditions: Solanum nigrum, 312 h, rate 1,000 g/ha, read-out: Percentage damage caused to weed species, post-emergence, SOLNI
In short: as §2

Row | Structure (SMILES) | pest or weed control at 1000 g/ha [1] | pest or weed control at 1000 g/ha [2] | pest or weed control at 1000 g/ha [3] | pest or weed control at 1000 g/ha [4] | pest or weed control at 1000 g/ha [5] | pest or weed control at 1000 g/ha [6] | pest or weed control at 1000 g/ha [7] | pest or weed control at 1000 g/ha [8] | pest or weed control at 1000 g/ha [9] | pest or weed control at 1000 g/ha [10] | pest or weed control at 1000 g/ha [11] | pest or weed control at 1000 g/ha [12]
1 | COC(=O)c1nc(-c2ccc(Cl)c(OC)c2F)nc2c1N(Cc1ccccc1)C(C)N2Cc1ccccc1 (stereo not drawn) [Compound 81-46, 2-(4-chloro-2-fluoro-3-methoxyphenyl)-7,9-dibenzyl-6-methoxycarbonyl-8-methyl-8,9-dihydro-7H-purine] | 0% | 0% | 0% | 0% | 0% | 0% | 0% | 0% | 0% | 0% | 10% | 10%
2 | COC(=O)c1nc(-c2ccc(Cl)c(OC)c2F)cc2[nH]ccc12 [Compound 22-62, 6-(4-Chloro-2-fluoro-3-methoxyphenyl)-4-methoxycarbonyl-1H-pyrrolo[3,2-c]pyridine] | 0% | 20% | 0% | 50% | 0% | 20% | 0% | 80% | 50% | 60% | 20% | 70%
3 | COC(=O)c1nc(C2CC2)nc2c1ccn2Cc1ccccc1[N+](=O)[O-] [Compound 8-2, 2-Cyclopropyl-4-methoxycarbonyl-7-(2-nitrophenyl-methyl)-7H-pyrrolo[2,3-d]pyrimidine] | 0% | 0% | 0% | 0% | 0% | 0% | 0% | 0% | 0% | 20% | 0% | 20%
4 | Cc1cc2c(C(=O)O)nc(-c3ccc(Cl)c(F)c3)nc2n1CC1CC1 [Compound 5-21, 4-Carboxy-2-(4-chloro-3-fluorophenyl)-7-cyclopropylmethyl-6-methyl-7H-pyrrolo[2,3-d]pyrimidine] | 10% | 100% | 0% | 30% | 10% | 40% | 10% | 70% | 10% | 30% | 10% | 50%
5 | COc1c(Cl)ccc(-c2cc3[nH]cc(C)c3c(C(=O)OC(C)C)n2)c1F [Compound 22-78, 6-(4-Chloro-2-fluoro-3-methoxyphenyl)-4-isopropoxycarbonyl-3-methyl-1H-pyrrolo[3,2-c]pyridne] | 0% | 20% | 0% | 0% | 0% | 10% | 0% | 0% | 0% | 70% | 0% | 60%
6 | COc1c(Cl)ccc(-c2nc(C(=O)O)c3c(n2)N(C)CCN3C)c1F [Compound 92-163, 4-Carboxy-2-(4-chloro-2-fluoro-3-methoxyphenyl)-5,8-dimethyl-5,6,7,8-tetrahydropteridine] | 0% | 0% | 0% | 0% | 0% | 0% | 10% | 0% | 10% | 10% | 10% | 10%
7 | COC(=O)c1nc(-c2ccc(Cl)c(OC)c2F)nc2c1NC(c1ccccc1)C(c1ccccc1)N2 (stereo not drawn) [Compound 91-204, 2-(4-Chloro-2-fluoro-3-methoxyphenyl)-6,7-diphenyl-4-methoxycarbonyl-5,6,7,8-tetrahydropteridine] | 0% | 20% | 0% | 0% | 0% | 10% | 0% | 50% | 0% | 40% | 0% | 80%
8 | O=C(O)c1nc(-c2ccc(Cl)c(F)c2)nc2c1ccn2Cc1ncccc1Cl [Compound 14-17, 4-Carboxy-2-(4-chloro-3-fluorophenyl)-7-(3-chloropyrid-2-yl-methyl)-7H-pyrrolo[2,3-d]pyrimidine] | 0% | 0% | 0% | 0% | 0% | 0% | 0% | 0% | 0% | 10% | 0% | 40%
9 | COC(=O)c1nc(-c2ccc(Cl)c(F)c2)cc2[nH]cc(C)c12 [Compound 22-20, 6-(4-Chloro-3-fluorophenyl)-4-methoxycarbonyl-3-methyl-1H-pyrrolo[3,2-c]pyridine] | 20% | 100% | 20% | 80% | 0% | 60% | 50% | 100% | 70% | 70% | 60% | 80%
10 | COc1c(Cl)ccc(-c2cc3[nH]cc(C)c3c(C(=O)O)n2)c1F [Compound 22-63, 4-Carboxy-6-(4-chloro-2-fluoro-3-methoxyphenyl)-3-methyl-1H-pyrrolo[3,2-c]pyridine] | 0% | 20% | 0% | 70% | 0% | 60% | 40% | 70% | 70% | 70% | 90% | 80%
11 | COC(=O)c1nc(-c2ccc(Cl)c(OC)c2F)cc2c1c(C)cn2S(=O)(=O)c1ccc(C)cc1 [Compound 40-64, 6-(4-Chloro-2-fluoro-3-methoxyphenyl)-4-methoxycarbonyl-3-methyl-1-(4-methylphenyl-sulphonyl)-1H-pyrrolo[3,2-c]pyridine] | 0% | 0% | 10% | 0% | 10% | 40% | 0% | 0% | 0% | 50% | 0% | 60%
